Earlier results in publication PMC12308805, “Ultrahigh-Throughput Virtual Screening Strategies against PPI Targets: A Case Study of STAT Inhibitors” (Journal of Chemical Information and Modeling, 2025).
Square brackets hold non-standard residues; d marks the D form. Peptide text beside a SMILES is read from it. * marks the point of attachment. pY = N[C@@H](Cc1ccc(OP(=O)(O)O)cc1)C(=O)O; X4 = O=C(/C=C/c1ccc(OP(=O)(O)O)cc1)*

Tested on: STAT3
Conditions: sheet 6QHD_actives_decoys, retrospective screening set for STAT3 SH2 domain (PDB 6QHD); decoys are presumed inactives, not tested; ref DUD-E; cited from earlier work

Question: With `COc1cc(S(=O)(=O)N2CCCCC2)ccc1N/C=C1\C(=O)NC(=O)N(c2ccc(C)cc2)C1=O` [Decoy837] as the compound, how does the Type read?
Answer: Inactive (Decoy)

Question: For `CCCCOC(=O)C1=C(C)Nc2nc(SCc3ccccc3Cl)nn2[C@@H]1c1ccccc1C(=O)O` [Decoy762], which Type is on record?
Answer: Inactive (Decoy)

Question: With `Cc1ccc(S(=O)(=O)NCCc2nnc(NC(=O)CSCc3ccc([N+](=O)[O-])cc3)s2)cc1` [Decoy939] as the compound, how does the Type read?
Answer: Inactive (Decoy)

Question: For `CC(=O)N[C@@H]1[C@@H](OC(C)=O)[C@H](OC(C)=O)[C@@H](COC(C)=O)O[C@H]1Sc1nnc(-c2ccccc2)n1C(C)C` [Decoy955], which Type is on record?
Answer: Inactive (Decoy)

Question: For `CCOC(=O)C1=C(C)NC(=O)N[C@H]1c1ccc(OCC(=O)N/N=C/c2ccc(SC)cc2)c(OC)c1` [Decoy818], which Type is on record?
Answer: Inactive (Decoy)

Question: With `CCCCCCCCO[C@@H]1[C@@H](O)[C@H](O)O[C@H](Cn2c(=O)n(C[C@H]3O[C@@H](O)[C@H](O)[C@@H](OCCCCCCCC)[C@@H]3O)c3cc(Cl)ccc32)[C@H]1O` [Decoy957] as the compound, how does the Type read?
Answer: Inactive (Decoy)

Question: For `CCCn1c(N)c(N(CCOC)C(=O)Cc2coc3cc(C)c(C(C)C)cc23)c(=O)[nH]c1=O` [Decoy953], which Type is on record?
Answer: Inactive (Decoy)

Question: Which Type does the source give for `Cc1cc(C)nc(N/C(=N/C(=O)Nc2cccc(Cl)c2)NCCSCc2[nH]cnc2C)n1` [Decoy901] here?
Answer: Inactive (Decoy)

Question: With `COc1ccc([N+](=O)[O-])cc1N(C[C@H](O)CN(Cc1ccccc1)Cc1ccccc1)S(=O)(=O)c1ccccc1` [Decoy741] as the compound, how does the Type read?
Answer: Inactive (Decoy)

Question: Which Type does the source give for `CCOC(=O)c1c(NC(=O)c2cc(OC)c(OC)c(OC)c2)sc(C(=O)Nc2ccc(OC)cc2OC)c1C` [Decoy754] here?
Answer: Inactive (Decoy)

Question: With `COc1cc(Cc2ccc(NC(=O)CSc3nc(N)cc(=O)[nH]3)c(OC)c2)ccc1NC(=O)CSc1nc(N)cc(=O)[nH]1` [Decoy750] as the compound, how does the Type read?
Answer: Inactive (Decoy)

Question: Which Type does the source give for `CCCCN/N=C(C(=O)OC)/C(C(=O)OC)=C(\O)C(=O)Nc1nc2ccc([N+](=O)[O-])cc2s1` [Decoy925] here?
Answer: Inactive (Decoy)

Question: Which Type does the source give for `COc1ccc(NC(=O)CSc2nnc(NC(=O)c3cc(OC)c(OC)c(OC)c3)s2)cc1OC` [Decoy923] here?
Answer: Inactive (Decoy)

Question: Which Type does the source give for `C=CCO[C@@H]1[C@H]2OC(C)(C)O[C@H]2O[C@@H]1[C@H](O)Cn1c(=O)n(C[C@@H](O)[C@H]2O[C@@H]3OC(C)(C)O[C@@H]3[C@H]2OCC=C)c2cc(C)ccc21` [Decoy929] here?
Answer: Inactive (Decoy)

Question: For `CC(=O)Nc1ccc(S(=O)(=O)NCCCCNc2ccc([N+](=O)[O-])c3cccnc23)cc1` [Decoy809], which Type is on record?
Answer: Inactive (Decoy)

Same assay, conditions: sheet 6QHD_actives_decoys; known STAT3 actives of the retrospective screening set; ref ChEMBL / literature; cited from earlier work

Question: With `CC(C)C[C@H](NC(=O)/C=C/c1ccc(OP(=O)(O)O)cc1)C(=O)N1C[C@H]2C[C@H]2[C@H]1C(=O)NCCOCc1ccccc1` [CHEMBL583728] as the compound, how does the “Type (known STAT3 active)” value read?
Answer: Active

Question: For `CC(=O)N[C@@H](Cc1ccc(OP(=O)(O)O)cc1)C(=O)N[C@@H](CC(C)C)C(=O)N1CCC[C@H]1C(=O)N[C@@H](CCC(N)=O)C(N)=O` [CHEMBL194516] (Ac-[pY]LPQ-NH2), which “Type (known STAT3 active)” value is on record?
Answer: Active

Question: For `CC(=O)OC[C@H](CCC(N)=O)NC(=O)[C@@H]1[C@@H]2C[C@@H]2CN1C(=O)[C@H](CC(C)C)NC(=O)/C=C/c1ccc(OP(=O)(O)O)cc1` [CHEMBL583726], which “Type (known STAT3 active)” value is on record?
Answer: Active

Question: For `CC(C)C[C@H](NC(=O)/C=C/c1ccc(OP(=O)(O)O)cc1)C(=O)N1CCC[C@H]1C(=O)N[C@@H](CCC(N)=O)C(=O)N[C@H](C(N)=O)[C@@H](C)O` [CHEMBL470227] (X4-LPQT-NH2), which “Type (known STAT3 active)” value is on record?
Answer: Active

Same assay, conditions: sheet 6QHD_actives_decoys; retrospective screening set for STAT3 SH2 domain (PDB 6QHD); […]; ref DUD-E; cited from earlier work

Question: For `Cc1ccc(N2C(=O)NC(=O)/C(=C\c3cc(C)n(-c4cc(C(=O)O)cc(C(=O)O)c4)c3C)C2=O)cc1` [Decoy670], which Type is on record?
Answer: Inactive (Decoy)

Question: Which Type does the source give for `CSc1cccc(NC(=O)C[C@@H]2SC(N[C@H](c3cccs3)c3c(O)[nH]c(=O)[nH]c3=O)=NC2=O)c1` [Decoy681] here?
Answer: Inactive (Decoy)

Same assay, conditions: sheet 6QHD_actives_decoys; retrospective screening set for STAT3 SH2 domain (PDB 6QHD); decoys generated with DUD-E and presumed inactive, not tested; ref DUD-E; cited from earlier work

Question: Which Type does the source give for `COC(=O)[C@H]1O[C@H](OCC(=O)[C@@]2(O)CC[C@H]3[C@H]4CCC5=CC(=O)C=C[C@@]5(C)[C@@H]4[C@@H](O)C[C@@]32C)[C@@H](OC(C)=O)[C@H](OC(C)=O)[C@H]1OC(C)=O` [Decoy634] here?
Answer: Inactive (Decoy)

Question: Which Type does the source give for `CC[N+]1=c2cc3c(cc2CCC1)=Nc1cc2c(cc1O3)N(CCCC(=O)NCCCCCNC(=O)CCCC[C@@H]1SC[C@@H]3NC(=O)N[C@@H]31)C(C)(C)C=C2CS(=O)(=O)[O-]` [Decoy583] here?
Answer: Inactive (Decoy)

Question: For `CCCCCCCCCCC/C=C/C(=O)N[C@@H]1[C@@H](O[C@H]2O[C@@H](CO)[C@@H](O)[C@@H](O)[C@H]2NC(C)=O)O[C@@H](C[C@H](O)[C@H]2O[C@@H](n3ccc(=O)[nH]c3=O)[C@@H](O)[C@H]2O)[C@@H](O)[C@H]1O` [Decoy558], which Type is on record?
Answer: Inactive (Decoy)

Question: With `COc1ccc(C(=O)Nc2ccc(S(=O)(=O)c3ccc(NC(=O)c4ccc(OC)c(OC)c4)cc3)cc2)cc1OC` [Decoy665] as the compound, how does the Type read?
Answer: Inactive (Decoy)

Question: With `Cc1ccc(S(=O)(=O)OC[C@H](OS(=O)(=O)c2ccc(C)cc2)[C@H](O)[C@H](O)[C@@H](COS(=O)(=O)c2ccc(C)cc2)OS(=O)(=O)c2ccc(C)cc2)cc1` [Decoy424] as the compound, how does the Type read?
Answer: Inactive (Decoy)

Question: Which Type does the source give for `C=C(CCO)C(=O)OC[C@H]1OC[C@@H](OC(=O)C(=C)CCO[C@@H]2O[C@H](COC(=O)C(=C)CCO)[C@@H](O)[C@H](O)[C@H]2O)[C@@H](O)[C@H]1O` [Decoy492] here?
Answer: Inactive (Decoy)

Question: For `C[N+]1=C(/C=C/C=C2/N(CCCCC(=O)NCCOCCOCCNCCO[C@H]3O[C@@H](CO)[C@@H](O)[C@H](O)[C@@H]3O)c3ccccc3C2(C)C)C(C)(C)c2ccccc21` [Decoy588], which Type is on record?
Answer: Inactive (Decoy)

Question: For `C[C@@H](OC(=O)CCC(=O)Nc1ccc(C(=O)OCC(=O)c2cccc([N+](=O)[O-])c2)cc1)C(=O)c1cccc(Cl)c1` [Decoy525], which Type is on record?
Answer: Inactive (Decoy)

Question: Which Type does the source give for `CCOC(=O)Cn1nnnc1[C@@H](CC)N(Cc1ccc(F)cc1)Cc1cc2cc3c(cc2[nH]c1=O)OCCO3` [Decoy585] here?
Answer: Inactive (Decoy)

Question: For `OCCN(CCO)C1=N[C@@H]2C(N3CCCCC3)=NC(N(CCO)CCO)=N[C@@H]2C(N2CCCCC2)=N1` [Decoy648], which Type is on record?
Answer: Inactive (Decoy)

Question: With `CCOC(=O)c1c(NC(=O)CSc2nnc(CNC(=O)c3ccco3)n2C)sc2c1CCC2` [Decoy722] as the compound, how does the Type read?
Answer: Inactive (Decoy)

Question: With `COc1cc(O)cc(C)c1C(=O)O[C@H]1[C@H](O)[C@@H](O)[C@@H](OC2[C@@H](O)[C@H](O)C(O)[C@H](O)[C@@H]2O)O[C@@H]1CO` (some centres unmarked) [Decoy641] as the compound, how does the Type read?
Answer: Inactive (Decoy)

Question: With `NS(=O)(=O)c1ccc(CCNC(=O)CCCCCn2c(=S)[nH]c3ccc(N4CCOCC4)cc3c2=O)cc1` [Decoy490] as the compound, how does the Type read?
Answer: Inactive (Decoy)

Question: With `CCOc1cc(N2CCOCC2)c(OCC)cc1NC(=O)c1oc2ccccc2c1CSc1ncn[nH]1` [Decoy600] as the compound, how does the Type read?
Answer: Inactive (Decoy)

Question: For `C=C(CO[C@H]1[C@H](O)[C@H](CO)O[C@@H](OCC#Cc2ccc(O)c(C(=O)OC)c2)[C@H]1NC(C)=O)C(=O)OCC` [Decoy507], which Type is on record?
Answer: Inactive (Decoy)

Question: Which Type does the source give for `CCCCCOc1ccc([C@@H]2C(C(=O)c3c(C)nc4ccccn34)=C(O)C(=O)N2CCN(C)C)cc1OCC` [Decoy423] here?
Answer: Inactive (Decoy)

Question: With `CC(=O)O[C@@H]1[C@@H](O)[C@@H](O[C@@H](C/N=C/c2ccc(O)c3ccccc23)[C@@H](CO)O[C@H](O)C/N=C/c2ccc(O)c3ccccc23)O[C@@H](CO)[C@H]1O` [Decoy410] as the compound, how does the Type read?
Answer: Inactive (Decoy)

Question: Which Type does the source give for `CC(=O)N[C@@H]1[C@H]([C@H](O)[C@H](O)CO)O[C@@](O[C@H]2[C@@H](O)[C@@H](O[C@@H]([C@@H](O[C@@H]3O[C@@H](C)[C@H](O)[C@H](O)[C@@H]3O)[C@H](O)C=O)[C@H](O)CO)O[C@@H](CO)[C@H]2O)(C(=O)O)C[C@@H]1O` [Decoy382] here?
Answer: Inactive (Decoy)

Question: For `COC(=O)c1[nH]c(C)c(C(=O)C2=C(O)C(=O)N(CCCN3CCOCC3)[C@@H]2c2cc(OC)c(OC)c(OC)c2)c1C` [Decoy711], which Type is on record?
Answer: Inactive (Decoy)

Question: Which Type does the source give for `COc1ccc(Cl)cc1N/C(N)=N\c1nc(CSc2nnnn2-c2ccccc2)cc(=O)[nH]1` [Decoy678] here?
Answer: Inactive (Decoy)

Question: Which Type does the source give for `COc1cc(/C=N/NC(=O)CC(=O)N/N=C/c2cc(Br)c(O)c(OC)c2)cc(Br)c1O` [Decoy510] here?
Answer: Inactive (Decoy)

Question: Which Type does the source give for `CC1(C)NC(=O)N(C[C@@H](O)COc2ccc(-c3ccc(OC[C@H](O)CN4C(=O)NC(C)(C)C4=O)cc3)cc2)C1=O` [Decoy539] here?
Answer: Inactive (Decoy)

Question: With `COc1cc(-c2c(-c3cc(Br)c(O)c(OC)c3)oc(/C=N/NC(=O)C[N+](C)(C)C)c2[N+](=O)[O-])cc(Br)c1[O-]` [Decoy556] as the compound, how does the Type read?
Answer: Inactive (Decoy)

Question: Which Type does the source give for `COC(=O)c1sc(NC(=O)CCCS(=O)(=O)c2nc(-c3ccccc3OC)cc(C(F)(F)F)n2)c(C(N)=O)c1C` [Decoy427] here?
Answer: Inactive (Decoy)

Question: For `CCN(CC)c1ccc(-n2nc3cc(C)c(NC(=S)NC(=O)c4ccc(OC)cc4OC)cc3n2)cc1` [Decoy453], which Type is on record?
Answer: Inactive (Decoy)

Question: Which Type does the source give for `CC(C)CNC(=O)c1ccc2c(=O)n(C(C)C)c3nn(CC(=O)Nc4ccc(F)cc4)c(=O)n3c2c1` [Decoy378] here?
Answer: Inactive (Decoy)

Question: Which Type does the source give for `Cc1nn(Cc2ccc(Cl)cc2Cl)c(C)c1NC(=S)Nc1ccc(S(=O)(=O)Nc2ncccn2)cc1` [Decoy456] here?
Answer: Inactive (Decoy)

Question: Which Type does the source give for `CCOc1ccc(NC(=O)CSC2=C(C#N)[C@H](c3ccco3)C(C(=O)Nc3ccc(OC)cc3)=C(C)N2)cc1` [Decoy721] here?
Answer: Inactive (Decoy)

Question: Which Type does the source give for `CCOC(=O)CNC(=O)[C@H](c1ccc(O)cc1)N(C(=O)c1snc(C(N)=O)c1N)c1ccccc1CC` [Decoy513] here?
Answer: Inactive (Decoy)

Question: With `COc1c([C@@H]2OC[C@H](OC(C)=O)[C@@H](OC(C)=O)[C@H]2OC(C)=O)c(O)cc2oc(-c3ccc(O[C@H]4O[C@@H](CO)[C@@H](O)[C@@H](O)[C@H]4O)cc3)cc(=O)c12` [Decoy411] as the compound, how does the Type read?
Answer: Inactive (Decoy)

Question: With `O=C(O)c1[nH]nc(-c2ccc(O[C@H]3O[C@@H](CO)[C@@H](O)[C@@H](O)[C@H]3O)cc2O)c1-c1ccc2c(c1)OCCO2` [Decoy397] as the compound, how does the Type read?
Answer: Inactive (Decoy)

Question: With `COc1cc(C(=O)NCc2nnc(SCC(=O)Nc3ccc(F)cc3)n2-c2cccc(C)c2)cc(OC)c1OC` [Decoy628] as the compound, how does the Type read?
Answer: Inactive (Decoy)
